For assay [1], the target named is recombinant guinea pig liver TGase (Cavia cutleri (Guinea pig), UniProt P08587). Kind of assay: biochemical. The assay is classed as biochemical. The protocol: ENZYME INHIBITION BY COMPOUNDS 14a-c, 14l, 15a, 15d-k, 15m-q, 30a, 30r, 30t, 37a and 38a: For enzymology studies of these compounds, recombinant guinea pig liver TGase was expressed in Escherichia coli and effectively purified (Gillet, S. M. F. G. et al J. N., Prot. Exp. & Purif. 2004, 33, 256).
The mode of inhibition was determined for the representative lead compound 14a through non-linear regression of initial rate data to the Michaelis-Menten equation (FIG. 1).
For the ensuing enzymatic tests, recombinant guinea pig liver TGase was expressed in E. Coli and effectively purified.
Kinetic runs were recorded on a Cary 100 BIO UV-Visible spectrophotometer at 405 nm and 25° C., in a buffer composed of 50 mM CaCl2, 50 μM EDTA and 0.1 M MOPS (pH 7.0). All aqueous solutions were prepared using de-ionized water purified from the Millipore BioCell system. […] Factor XIIIa activity was measured using a coupled-enzyme assay (Day, N.; Keillor, J. W. Anal. Biochem. 1999, 274, 141). Factor XIIIa, was added to a final concentration of 0.89 μg/mL to a pH 8.5 solution (0.1 M Tris-HCl, 5 mM CaCl2 and 10 mM DDT) of 0.5 mM β-NADH, 3.3 mM Na-acetyl-L-lysine methyl ester, 10 mM α-ketoglutaric acid sodium salt and 297 μg/mL glutamate dehydrogenase (GDH).

The test system of assay [2] is tissue transglutaminase (TG2). Kind of assay: Cytochrome c (cytC) promoter/luciferase reporter assay in CHO cells. The class given is cell-based, Chinese Hamster. The note with it: 100 μM, CHO cells incubated 12 hours, luminescence of cell lysate. From the text:
IN VITRO STUDIES FOR COMPOUND 15a: A cytochrome c (cytC) promoter/luciferase reporter assay (illustrated in FIG. 6) was used to assess tissue transglutaminase (TG2) activity for compound 15a. In the absence of TG2, transcription factors bind to the cytC promoter region of the luciferase gene, and the level of expressed luciferase is detected from the luminescence of the Chinese Hamster Ovary (CHO) cell lysate (A). The level of effective cytC promoter is sensitive to endogenous TG2 co-expressed in CHO cells. High TG2 expression results in low promoter activity, presumably because the transcription factors that bind to the cytC promoter have Gln-rich sequences that are modified by TG2-mediated hydrolysis or transamidation (B). In the presence of TG2 inhibitors, TG2-induced silencing of the promoter is repressed and luciferase is detected in the lysate once more (C). In this assay, CHO cells are incubated in the presence of the inhibitor compound for 12 hours, after which the luminescence of cell lysate is measured, as an indication of the level of TG2 inhibition.
(In general: Reporter assays use an easily measured gene product as a stand-in for the process of interest.)

Assay [3] has as its target human caspase 3 (Homo sapiens (Human), UniProt P42574). Kind of assay: Caspase 3 activity, release of p-nitroaniline from Ac-Asp-Glu-Val-Asp-pNA. The class given is biochemical. From the text:
To examine the enzyme selectivity of this new family of TG2 inhibitors, several representative compounds (14a, 15p, 18a, 28a and 30a) were further tested as inhibitors of related enzymes. For these studies, Factor XIIIa was chosen because it is a member of the family of transglutaminase enzymes and its inhibition in vivo may lead to compromised coagulation and toxicity. Caspase 3 was also chosen because as a cysteine protease, its acyl transfer mechanism is phenomenologically similar to that of TGase. At concentrations approaching the limits of their solubility, most of those compounds had no discernable effect on the activities of either of these enzymes (data not shown). […] This selectivity bodes well for in vivo application.
The subsequent absorbance decrease was followed at 340 nm at 37° C. Caspase 3 activity was measured by monitoring the release of p-nitroaniline (pNA) (λabs=405 nm) from the peptidic substrate Ac-Asp-Glu-Val-Asp-pNA (20 μM) catalyzed by human caspase 3 (Sigma, 250 ng/mL) at pH 7.4 (18.6 mM HEPES, 1.9 mM EDTA, 0.09% CHAPS and 4.7 mM DTT).

Where [4] appears, read: Table 1, substituent on the cinnamoyl aromatic group, read-out: IC50 (μM), class symbol.
[5] abbreviates: Table 1, value in brackets, read-out: IC50.
Setting [6] is: Table 3, influence of the acylated moiety, read-out: IC50 (μM), class symbol.

Like-named read-outs stand apart in the source and are kept apart here.

recombinant guinea pig liver TGase, sequence (P08587 whole entry): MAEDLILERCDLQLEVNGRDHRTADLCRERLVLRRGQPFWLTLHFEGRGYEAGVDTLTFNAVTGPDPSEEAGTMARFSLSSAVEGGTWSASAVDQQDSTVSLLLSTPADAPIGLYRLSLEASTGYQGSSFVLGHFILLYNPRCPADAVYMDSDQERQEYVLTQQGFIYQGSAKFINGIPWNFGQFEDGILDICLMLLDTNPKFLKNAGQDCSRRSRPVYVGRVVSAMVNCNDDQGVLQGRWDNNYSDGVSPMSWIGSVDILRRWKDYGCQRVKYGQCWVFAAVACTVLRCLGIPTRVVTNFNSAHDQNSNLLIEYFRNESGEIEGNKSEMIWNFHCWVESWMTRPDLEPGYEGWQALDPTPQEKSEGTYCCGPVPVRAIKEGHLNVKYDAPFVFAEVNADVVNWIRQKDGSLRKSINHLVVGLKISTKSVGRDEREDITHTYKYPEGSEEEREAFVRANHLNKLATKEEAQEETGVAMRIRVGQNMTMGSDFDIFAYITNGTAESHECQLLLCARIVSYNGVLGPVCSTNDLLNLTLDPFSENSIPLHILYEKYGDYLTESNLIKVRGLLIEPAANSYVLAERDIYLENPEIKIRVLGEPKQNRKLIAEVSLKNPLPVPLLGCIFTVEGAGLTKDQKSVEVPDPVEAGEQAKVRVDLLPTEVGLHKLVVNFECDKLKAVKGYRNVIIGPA
human caspase 3, sequence (P42574 29-175): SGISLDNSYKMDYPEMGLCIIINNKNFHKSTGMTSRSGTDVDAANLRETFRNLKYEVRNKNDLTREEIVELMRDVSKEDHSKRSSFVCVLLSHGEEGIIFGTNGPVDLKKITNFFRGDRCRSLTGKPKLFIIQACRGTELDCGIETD
human caspase 3, sequence (P42574 176-277): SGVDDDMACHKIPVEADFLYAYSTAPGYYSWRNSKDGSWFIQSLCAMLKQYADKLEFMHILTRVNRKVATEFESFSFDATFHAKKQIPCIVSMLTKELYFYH

As for `O=C(/C=C/c1ccc([N+](=O)[O-])cc1)n1nnc2ccccc21` [Compound 15a, p-Nitrocinnamoyl benzotriazolyl amide], the “TGase inhibitory activity (in words)” value in assay [1] was “Inhibitory activity was observed”. Further, the 50% inhibitory concentration (IC50) in assay [1] (setting [4]) was greater than 50 µM; in assay [1] (setting [5]), 74 µM; in assay [1] (Table 2, influence of the cinnamoyl double bond, read-out: IC50 (μM), class symbol), greater than 50 µM; in assay [1] (Table 2, value in brackets or words, read-out: IC50), 74 µM; in assay [1] (setting [6]), greater than 50 µM. Also, the “inhibition of TG2-mediated silencing of cytC promoter” value in assay [2] is recorded as “complete inhibition”.

With `O=C(/C=C/c1ccc([N+](=O)[O-])cc1)c1cc2ccccc2oc1=O` [Compound 28a, 3-((E)-3-(4-Nitrophenyl)acryloyl)-2H-chromen-2-one], the IC50 in assay [1] (setting [6]) was 20 to 50 µM; in assay [1] (Table 3, value in brackets, read-out: IC50), 48 µM; in assay [1] (read-out: IC50) it was 48 µM. For the same molecule, the inhibition at 6 µM in assay [3] (at 6 μM) came out at 28%. The “effect on caspase 3 activity” value in assay [3] (at concentrations approaching the limits of solubility) is “slight inhibitory activity”.

With `CC(C)(C)OC(=O)Nc1cccc(C=CC(=O)n2nnc3ccccc32)c1` [Compound 15o, m-(tert-Butoxycarbonylamino)cinnamoyl benzotriazolyl amide], the values for the IC50 in assay [1] (setting [4]) and in assay [1] (setting [5]) were 20 to 50 µM and 39 µM, respectively.

On to `O=C(/C=C/c1ccc([N+](=O)[O-])cc1)c1cn(Cc2ccccc2[N+](=O)[O-])nn1` [Compound 4h, (E)-1-(1-(2-nitrobenzyl)-1H-1,2,3-triazol-4-yl)-3-(4-nitrophenyl)prop-2-en-1-one], for which, in assay [1], the “reduction in potency (fold)” value is 4-7 fold. Besides, the IC50 in assay [1] (IC50 (μM), Table 6, value in brackets) is 10.7 µM; in assay [1] (IC50 (μM), class symbol, Table 6, Huisgen [3+2] cycloaddition products), less than 20 µM.

Take `O=C(/C=C/c1ccc([N+](=O)[O-])cc1)c1cn(Cc2cc(C(F)(F)F)cc(C(F)(F)F)c2)nn1` [Compound 4j, (E)-1-(1-(3,5-bis(trifluoromethyl)benzyl)-1H-1,2,3-triazol-4-yl)-3-(4-nitrophenyl)prop-2-en-1-one]: the “TGase inhibitory activity (in words)” value in assay [1] was “activity was lost”. Moreover, the IC50 in assay [1] (Table 6, Huisgen [3+2] cycloaddition products, read-out: IC50 (μM), class symbol) was greater than 50 µM; in assay [1] (Table 6, value in brackets, read-out: IC50) it was greater than 100 µM.

For `CC(C)(C)OC(=O)Nc1ccc(C=CC(=O)n2nnc3ccccc32)cc1` [Compound 15n, p-(tert-Butoxycarbonylamino)cinnamoyl benzotriazolyl amide], the IC50 is less than 20 µM in assay [1] (setting [4]) and 18 µM in assay [1] (setting [5]).

Take `O=C(/C=C/c1ccc([N+](=O)[O-])cc1)c1c[nH]nn1` [Compound 4o, (E)-3-(4-nitrophenyl)-1-(1H-1,2,3-triazol-4-yl)prop-2-en-1-one]: in assay [1], the IC50 is 20 to 50 µM and the “TGase inhibitory activity (in words)” value is on record as “relatively high IC50”. In assay [1] (read-out: IC50), the IC50 amounted to 45 µM.

With `O=C(/C=C/c1ccc([N+](=O)[O-])cc1)c1cccnc1` [Compound 30a, (E)-3-(4-nitrophenyl)-1-(pyridin-3-yl)prop-2-en-1-one], the “TGase inhibitory activity (in words)” value in assay [1] is “as effective as the benzotriazolyl amide inhibitors”. The half-inhibitory concentration (IC50) in assay [1] (setting [4]) was 20 to 50 µM; in assay [1] (setting [5]), 21 µM.

For the molecule `Cc1cccc(/C=C/C(=O)n2nnc3ccccc32)c1` [Compound 15h, m-Methylcinnamoyl benzotriazolyl amide], the IC50 in assay [1] (setting [4]) was greater than 50 µM; in assay [1] (setting [5]) it was greater than 100 µM.

Regarding `Cc1ccccc1/C=C/C(=O)n1nnc2ccccc21` [Compound 15i, o-Methylcinnamoyl benzotriazolyl amide], the values for the IC50 in assay [1] (setting [4]) and in assay [1] (setting [5]) were greater than 50 µM and greater than 100 µM, respectively.

With `O=C(/C=C/C=C/c1ccc([N+](=O)[O-])cc1)c1cccnc1` [Compound 38a, (2E,4E)-5-(4-Nitrophenyl)-1-(pyridine-3-yl)penta-2,4-dien-1-one], in assay [1], the “TGase inhibitory activity (in words)” value is given as “Neither of these two extended conjugated compounds showed significant inhibition”.

With `O=C(/C=C/c1ccc([N+](=O)[O-])cc1)c1cn(C2CCCC2)nn1` [Compound 4c, (E)-1-(1-cyclopentyl-1H-1,2,3-triazol-4-yl)-3-(4-nitrophenyl)prop-2-en-1-one], the IC50 in assay [1] was greater than 50 µM; in assay [1] (read-out: IC50), greater than 100 µM. For the same molecule, the “TGase inhibitory activity (in words)” value in assay [1] is recorded as “relatively poor activity”.

Regarding `COc1ccc(Cn2cc(C(=O)/C=C/c3ccc([N+](=O)[O-])cc3)nn2)cc1` [Compound 4n, (E)-1-(1-(4-methoxybenzyl)-1H-1,2,3-triazol-4-yl)-3-(4-nitrophenyl)prop-2-en-1-one], the IC50 in assay [1] was less than 20 µM; in assay [1] (read-out: IC50) it was 14 µM.

Turning to `COc1ccc(/C=C/C(=O)n2nnc3ccccc32)cc1` [Compound 15d, p-Methoxycinnamoyl benzotriazolyl amide], the IC50 was greater than 50 µM in assay [1] (setting [4]) and greater than 100 µM in assay [1] (setting [5]).

Regarding `O=C(C=Cc1ccc([N+](=O)[O-])cc1)On1nnc2cccnc21` [Compound 16a, p-Nitrocinnamoyl oxyazabenzotriazolyl amide], the “TGase inhibitory activity (in words)” value in assay [1] is given as “Inhibitory activity was observed”. Also, in assay [1] (setting [6]), the IC50 fell in the range of 20 to 50 µM.

On to `CC(c1ccccc1)n1cc(C(=O)/C=C/c2ccc([N+](=O)[O-])cc2)nn1` (centres unmarked) [Compound 4k, (E)-3-(4-nitrophenyl)-1-(1-(1-phenylethyl)-1H-1,2,3-triazol-4-yl)prop-2-en-1-one], for which, in assay [1], the IC50 was less than 20 µM and the “loss in potency (fold)” value was 4 fold. Besides, the IC50 in assay [1] (read-out: IC50) was 17 µM.

Take `CN(Cc1ccccc1)C(=O)/C=C/c1ccc([N+](=O)[O-])cc1` [Compound 27a, p-Nitrocinnamoyl methylbenzyl amide]: the IC50 in assay [1] (setting [6]) is greater than 50 µM.

For the molecule `CCCCCCCCn1cc(C(=O)/C=C/c2ccc([N+](=O)[O-])cc2)nn1` [Compound 4b, (E)-3-(4-nitrophenyl)-1-(1-octyl-1H-1,2,3-triazol-4-yl)prop-2-en-1-one], the IC50 was 20 to 50 µM in assay [1] and 28.5 µM in assay [1] (read-out: IC50).

Turning to `CC(C)(C)OC(=O)/C=C/c1ccc([N+](=O)[O-])cc1` [Compound 20a, p-Nitrocinnamoyl t-butyl ester], in assay [1], the “TGase inhibitory activity (in words)” value is recorded as “little inhibitory activity”. In addition, the half-maximal inhibitory concentration (IC50) in assay [1] (setting [6]) was greater than 50 µM.

In the case of `O=C(/C=C/c1ccc([N+](=O)[O-])cc1)OCc1ccccc1` [Compound 19a, p-Nitrocinnamoyl benzyl ester], the “TGase inhibitory activity (in words)” value in assay [1] is reported as “little inhibitory activity”. Besides, the half-maximal inhibitory concentration (IC50) in assay [1] (setting [6]) was greater than 50 µM.

For the molecule `COc1ccccc1/C=C/C(=O)n1nnc2ccccc21` [Compound 15f, o-Methoxycinnamoyl benzotriazolyl amide], the values for the IC50 in assay [1] (setting [4]) and in assay [1] (setting [5]) were greater than 50 µM and greater than 100 µM, respectively.

On to `Cc1ccc(/C=C/C(=O)n2nnc3ccccc32)cc1` [Compound 15g, p-Methylcinnamoyl benzotriazolyl amide], for which the half-maximal inhibitory concentration (IC50) in assay [1] (setting [4]) was greater than 50 µM; in assay [1] (setting [5]), greater than 100 µM.

For orientation: IC50 means the concentration needed to halve the response being measured. As usually defined, the inhibition is the percentage by which the read-out fell short of the control. A lower inhibition goes with a weak effect.

These data come from patent US9162991B2 (University of Ottawa, priority 2007, dated 2015).
